Experimental data taken from patent US12371428B2 (Exelixis, Inc., priority 2019, dated 2025).
Structures can show the parent of a compound that is named as a salt.

Tests used:
[1] = target: Human KDR (residues 790-1356) (Homo sapiens (Human), UniProt P35968); assay: Human KDR kinase assay, HTRF KinEase (Example B-2); format: biochemical; conditions: protocol of Example B-2 (other compounds)
Outline: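 Human KDR residues 790-1356 (0.1 ng/well) in buffer with 5 mM MgCl2, 1 mM MnCl2, 1 mM DTT, biotinylated peptide substrate, ATP at Km (4.0 μM), 3% DMSO, 10 compound concentrations; 40 min, room temperature. EDTA stop, streptavidin-XL665/Eu-TK antibody HTRF read 665/620 nm; 4-parameter IC50.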

[2] = target: Met (phospho-Met, HGF-stimulated PC-3 prostate cancer cells) (Homo sapiens (Human), UniProt P08581); assay: Met autophosphorylation ELISA in PC-3 cells (Example F); format: cell-based; conditions: cellular activity; Met autophosphorylation ELISA in PC-3 cells; read-out: c-Met IC50
Chain of Met (phospho-Met, HGF-stimulated PC-3 prostate cancer cells) (P08581 25-1390): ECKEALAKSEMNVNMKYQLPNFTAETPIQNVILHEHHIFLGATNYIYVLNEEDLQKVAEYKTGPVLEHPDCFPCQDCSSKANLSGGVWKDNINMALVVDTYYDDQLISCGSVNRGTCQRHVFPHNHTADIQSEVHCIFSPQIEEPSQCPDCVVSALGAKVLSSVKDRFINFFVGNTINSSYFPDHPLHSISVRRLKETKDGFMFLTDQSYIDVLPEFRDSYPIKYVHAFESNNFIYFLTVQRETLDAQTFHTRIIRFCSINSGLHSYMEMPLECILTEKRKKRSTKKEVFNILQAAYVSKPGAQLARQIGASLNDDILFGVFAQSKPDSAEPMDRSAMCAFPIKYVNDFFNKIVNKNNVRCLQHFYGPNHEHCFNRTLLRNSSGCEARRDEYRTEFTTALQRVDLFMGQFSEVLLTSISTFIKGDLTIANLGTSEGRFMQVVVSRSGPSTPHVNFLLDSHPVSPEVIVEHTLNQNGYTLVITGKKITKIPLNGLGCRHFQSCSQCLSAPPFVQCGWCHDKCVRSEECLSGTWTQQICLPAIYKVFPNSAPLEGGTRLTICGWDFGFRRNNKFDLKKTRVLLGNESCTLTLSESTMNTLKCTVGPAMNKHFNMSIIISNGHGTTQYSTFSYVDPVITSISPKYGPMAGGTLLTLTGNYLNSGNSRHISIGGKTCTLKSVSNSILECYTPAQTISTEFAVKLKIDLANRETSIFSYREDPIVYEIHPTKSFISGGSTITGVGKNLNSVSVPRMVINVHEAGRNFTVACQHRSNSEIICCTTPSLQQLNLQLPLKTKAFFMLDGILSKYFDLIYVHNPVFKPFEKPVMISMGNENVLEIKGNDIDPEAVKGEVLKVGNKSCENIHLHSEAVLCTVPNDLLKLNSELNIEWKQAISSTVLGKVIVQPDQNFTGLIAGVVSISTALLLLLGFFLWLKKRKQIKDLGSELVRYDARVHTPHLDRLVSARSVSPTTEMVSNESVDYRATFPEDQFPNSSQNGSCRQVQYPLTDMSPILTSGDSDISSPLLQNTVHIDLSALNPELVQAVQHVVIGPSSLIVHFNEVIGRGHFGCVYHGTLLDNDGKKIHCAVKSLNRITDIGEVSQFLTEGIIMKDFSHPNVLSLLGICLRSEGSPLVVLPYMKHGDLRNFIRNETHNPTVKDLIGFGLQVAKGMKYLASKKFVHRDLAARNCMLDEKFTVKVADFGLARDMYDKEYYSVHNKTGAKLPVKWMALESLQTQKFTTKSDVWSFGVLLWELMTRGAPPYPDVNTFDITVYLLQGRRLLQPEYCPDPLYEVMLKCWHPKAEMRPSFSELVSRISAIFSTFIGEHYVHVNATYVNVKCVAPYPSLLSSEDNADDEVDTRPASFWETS
Outline: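 IC50 values derive from a 4-parameter logistic fit of phospho-Met (panTyr) sandwich ELISA signals in PC-3 lysates, scaled between DMSO and reference-inhibitor wells. Cells, starved 3 h in serum-free medium, had 1 h compound exposure (8 doses, 0.3% DMSO) before 10 min stimulation with 100 ng/mL HGF.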

[3] = target: Mer (phospho-Mer, MERTK-transfected 293A cells) (Homo sapiens (Human), UniProt Q12866); assay: Mer autophosphorylation ELISA in transient transfected 293A cells (Example H); format: cell-based; conditions: cellular activity; Mer autophosphorylation ELISA in transient transfected 293A cells
Chain of Mer (phospho-Mer, MERTK-transfected 293A cells) (Q12866 21-999): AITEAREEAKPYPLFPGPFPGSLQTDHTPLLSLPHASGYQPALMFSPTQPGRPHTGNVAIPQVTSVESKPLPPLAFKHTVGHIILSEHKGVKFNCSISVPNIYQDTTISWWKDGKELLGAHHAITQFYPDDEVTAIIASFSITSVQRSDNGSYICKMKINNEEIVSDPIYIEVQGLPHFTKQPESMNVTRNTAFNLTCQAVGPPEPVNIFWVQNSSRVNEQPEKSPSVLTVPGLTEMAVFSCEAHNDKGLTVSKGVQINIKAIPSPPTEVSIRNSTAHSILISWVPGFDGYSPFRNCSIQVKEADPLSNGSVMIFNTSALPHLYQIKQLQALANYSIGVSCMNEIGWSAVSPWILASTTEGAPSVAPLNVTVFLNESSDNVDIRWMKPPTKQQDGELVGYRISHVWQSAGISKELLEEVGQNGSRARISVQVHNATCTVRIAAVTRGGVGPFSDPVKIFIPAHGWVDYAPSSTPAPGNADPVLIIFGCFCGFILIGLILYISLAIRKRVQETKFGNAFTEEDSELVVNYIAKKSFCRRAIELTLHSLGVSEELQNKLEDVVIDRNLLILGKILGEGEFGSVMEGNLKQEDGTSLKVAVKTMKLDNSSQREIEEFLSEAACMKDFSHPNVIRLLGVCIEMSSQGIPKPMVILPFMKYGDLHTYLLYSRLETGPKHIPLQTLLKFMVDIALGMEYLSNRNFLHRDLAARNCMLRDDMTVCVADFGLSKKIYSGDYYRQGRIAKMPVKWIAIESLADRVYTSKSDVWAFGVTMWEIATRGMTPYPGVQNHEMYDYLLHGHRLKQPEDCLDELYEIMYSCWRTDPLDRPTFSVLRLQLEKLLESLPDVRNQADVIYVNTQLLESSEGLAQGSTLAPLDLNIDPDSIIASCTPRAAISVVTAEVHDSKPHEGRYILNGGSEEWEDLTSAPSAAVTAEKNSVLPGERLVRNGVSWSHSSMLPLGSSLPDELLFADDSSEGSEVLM
Outline: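 Human MERTK transiently transfected into 293A cells; compounds as 8-point dose curve in serum-free medium (0.3% DMSO final), 1 h. Lysates assayed by phospho-Mer sandwich ELISA against phospho-Mer standard; DMSO = 100%, reference inhibitor = 0% activity; IC50 from 4-parameter logistic fit.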

Chain of Human KDR (residues 790-1356) (P35968 790-1356): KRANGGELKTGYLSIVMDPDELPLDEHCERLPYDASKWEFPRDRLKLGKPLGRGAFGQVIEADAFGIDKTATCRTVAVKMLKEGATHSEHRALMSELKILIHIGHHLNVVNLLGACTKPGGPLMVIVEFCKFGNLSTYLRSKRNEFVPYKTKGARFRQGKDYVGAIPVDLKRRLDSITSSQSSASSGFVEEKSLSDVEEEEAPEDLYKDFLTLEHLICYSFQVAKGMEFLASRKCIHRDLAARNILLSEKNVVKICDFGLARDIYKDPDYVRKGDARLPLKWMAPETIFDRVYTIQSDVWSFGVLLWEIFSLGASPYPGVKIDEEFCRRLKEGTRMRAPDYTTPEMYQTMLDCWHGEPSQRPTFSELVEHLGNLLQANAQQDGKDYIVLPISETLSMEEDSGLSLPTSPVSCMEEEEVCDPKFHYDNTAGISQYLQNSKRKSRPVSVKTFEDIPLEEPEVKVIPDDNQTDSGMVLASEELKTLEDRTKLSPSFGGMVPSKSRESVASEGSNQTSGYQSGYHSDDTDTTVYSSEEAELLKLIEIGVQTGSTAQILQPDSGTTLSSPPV

Compound	IC50 [1] [nM]	IC50 [2] [nM]	IC50 [3] [nM]
COc1cnc2c(Oc3ccc(NC(=O)c4cnc(CO)c(-c5ccc(F)cc5)c4O)cc3F)ccnc2c1 [Compound 217, N-[3-Fluoro-4-[(7-methoxy-1,5-naphthyridin-4-yl)oxy]phenyl]-5-(4-fluorophenyl)-4-hydroxy-6-(hydroxymethyl)pyridine-3-carboxamide]	100 to 300	< 100	< 100
COc1cnc2c(Oc3ccc(NC(=O)c4n[nH]c(C)c(-c5ccc(F)cc5)c4=O)cc3)ccnc2c1 [Compound 245, 5-(4-Fluorophenyl)-N-[4-[(7-methoxy-1,5-naphthyridin-4-yl)oxy]phenyl]-6-methyl-4-oxo-1H-pyridazine-3-carboxamide]	100 to 300	< 100	< 100
CCc1nc(C)c(-c2ccc(F)cc2C)c(O)c1C(=O)Nc1ccc(Oc2ccnc3cc(OC)c(OC)nc23)c(F)c1 [Compound 202, N-[4-[(6,7-Dimethoxy-1,5-naphthyridin-4-yl)oxy]-3-fluorophenyl]-2-ethyl-5-(4-fluoro-2-methylphenyl)-4-hydroxy-6-methylpyridine-3-carboxamide]	100 to 300	< 100	< 100
COc1cnc2c(Oc3ccc(NC(=O)c4c(C)n(C)cc(-c5ccc(F)cc5)c4=O)cc3F)ccnc2c1 [Compound 239, N-[3-Fluoro-4-[(7-methoxy-1,5-naphthyridin-4-yl)oxy]phenyl]-5-(4-fluorophenyl)-1,2-dimethyl-4-oxopyridine-3-carboxamide]	> 300	100 to 300	< 100
COc1ccc2nccc(Oc3ccc(NC(=O)c4cnc(CO)c(-c5ccc(F)cc5)c4O)cc3F)c2n1 [Compound 231, N-[3-Fluoro-4-[(6-methoxy-1,5-naphthyridin-4-yl)oxy]phenyl]-5-(4-fluorophenyl)-4-hydroxy-6-(hydroxymethyl)pyridine-3-carboxamide]	100 to 300	< 100	< 100
COc1cnc2c(Oc3ccc(NC(=O)c4n[nH]c(C)c(-c5ccc(F)cc5C)c4=O)cc3F)ccnc2c1 [Compound 249A, N-[3-Fluoro-4-[(7-methoxy-1,5-naphthyridin-4-yl)oxy]phenyl]-5-(4-fluoro-2-methylphenyl)-6-methyl-4-oxo-1H-pyridazine-3-carboxamide]	> 300	< 100	< 100
COc1cnc2c(Oc3ccc(NC(=O)c4cn(C)c(CO)c(-c5ccc(F)cc5)c4=O)cc3F)ccnc2c1 [Compound 222, N-[3-Fluoro-4-[(7-methoxy-1,5-naphthyridin-4-yl)oxy]phenyl]-5-(4-fluorophenyl)-6-(hydroxymethyl)-1-methyl-4-oxopyridine-3-carboxamide]	> 300	< 100	< 100
COc1cc2nccc(Oc3ccc(NC(=O)c4cn(C)c(C)c(-c5ccc(F)cc5C)c4=O)cc3)c2nc1OC [Compound 196, N-[4-[(6,7-Dimethoxy-1,5-naphthyridin-4-yl)oxy]phenyl]-5-(4-fluoro-2-methylphenyl)-1,6-dimethyl-4-oxopyridine-3-carboxamide]	100 to 300	< 100	< 100
COCc1nc(C)c(-c2ccc(F)cc2C)c(O)c1C(=O)Nc1ccc(Oc2ccnc3cc(OC)cnc23)c(F)c1 [Compound 193, N-[3-Fluoro-4-[(7-methoxy-1,5-naphthyridin-4-yl)oxy]phenyl]-5-(4-fluoro-2-methylphenyl)-4-hydroxy-2-(methoxymethyl)-6-methylpyridine-3-carboxamide]	100 to 300	< 100	< 100
CCc1nc(C)c(-c2ccc(F)cc2C)c(O)c1C(=O)Nc1ccc(Oc2ccnc3cc(OC)cnc23)c(F)c1 [Compound 204, 2-Ethyl-N-[3-fluoro-4-[(7-methoxy-1,5-naphthyridin-4-yl)oxy]phenyl]-5-(4-fluoro-2-methylphenyl)-4-hydroxy-6-methylpyridine-3-carboxamide]	100 to 300	< 100	< 100
COCCOc1nc2c(Oc3ccc(NC(=O)c4cn(C)c(C)c(-c5ccc(F)cc5C)c4=O)cc3F)ccnc2cc1OC [Compound 200, N-[3-Fluoro-4-[[7-methoxy-6-(2-methoxyethoxy)-1,5-naphthyridin-4-yl]oxy]phenyl]-5-(4-fluoro-2-methylphenyl)-1,6-dimethyl-4-oxopyridine-3-carboxamide]	> 300	< 100	< 100
COCCOc1nc2c(Oc3ccc(NC(=O)c4ccc(C)n(-c5ccc(F)cc5)c4=O)cc3F)ccnc2cc1OC [Compound 227, N-[3-Fluoro-4-[[7-methoxy-6-(2-methoxyethoxy)-1,5-naphthyridin-4-yl]oxy]phenyl]-1-(4-fluorophenyl)-6-methyl-2-oxopyridine-3-carboxamide]	< 100	< 100	< 100

Further lines, results first:

IC50 [1] [nM]	IC50 [2] [nM]	IC50 [3] [nM]	Compound
< 100	< 100	< 100	CCc1nc(C)c(-c2ccc(F)cc2)c(O)c1C(=O)Nc1ccc(Oc2ccnc3cc(OC)c(OC)nc23)c(F)c1 [Compound 179, N-[4-[(6,7-Dimethoxy-1,5-naphthyridin-4-yl)oxy]-3-fluorophenyl]-2-ethyl-5-(4-fluorophenyl)-4-hydroxy-6-methylpyridine-3-carboxamide]
< 100	< 100	< 100	COc1cnc2c(Oc3ccc(NC(=O)c4c(C)nc(C)n(-c5ccc(F)cc5)c4=O)cc3F)ccnc2c1 [Compound 257, N-[3-Fluoro-4-[(7-methoxy-1,5-naphthyridin-4-yl)oxy]phenyl]-1-(4-fluorophenyl)-2,4-dimethyl-6-oxopyrimidine-5-carboxamide]
< 100	< 100	< 100	CCc1nc(C)c(-c2ccc(F)cc2)c(O)c1C(=O)Nc1ccc(Oc2ccnc3cc(OC)cnc23)cc1 [Compound 188, 2-Ethyl-5-(4-fluorophenyl)-4-hydroxy-N-[4-[(7-methoxy-1,5-naphthyridin-4-yl)oxy]phenyl]-6-methylpyridine-3-carboxamide]
< 100	< 100	< 100	COc1cc2nccc(Oc3ccc(NC(=O)c4c(C)nc(C)c(-c5ccc(F)cc5C)c4O)cc3F)c2nc1OC [Compound 177, N-[4-[(6,7-Dimethoxy-1,5-naphthyridin-4-yl)oxy]-3-fluorophenyl]-5-(4-fluoro-2-methylphenyl)-4-hydroxy-2,6-dimethylpyridine-3-carboxamide]
< 100	100 to 300	< 100	COc1ccc2nccc(Oc3ccc(NC(=O)c4c(C)nc(C)n(-c5ccc(F)cc5)c4=O)cc3F)c2n1 [Compound 233, N-[3-Fluoro-4-[(6-methoxy-1,5-naphthyridin-4-yl)oxy]phenyl]-1-(4-fluorophenyl)-2,4-dimethyl-6-oxopyrimidine-5-carboxamide]
< 100	< 100	< 100	COCc1nc(C)c(-c2ccc(F)cc2)c(O)c1C(=O)Nc1ccc(Oc2ccnc3cc(OC)cnc23)c(F)c1 [Compound 186, N-[3-Fluoro-4-[(7-methoxy-1,5-naphthyridin-4-yl)oxy]phenyl]-5-(4-fluorophenyl)-4-hydroxy-2-(methoxymethyl)-6-methylpyridine-3-carboxamide]
< 100	< 100	< 100	COc1cc2nccc(Oc3ccc(NC(=O)c4n[nH]c(C)c(-c5ccc(F)cc5C)c4=O)cc3)c2nc1OC [Compound 247, N-[4-[(6,7-Dimethoxy-1,5-naphthyridin-4-yl)oxy]phenyl]-5-(4-fluoro-2-methylphenyl)-6-methyl-4-oxo-1H-pyridazine-3-carboxamide]
< 100	< 100	< 100	COCCOc1nc2c(Oc3ccc(NC(=O)c4c(COC)nc(C)c(-c5ccc(F)cc5)c4O)cc3F)ccnc2cc1OC [Compound 199, N-[3-Fluoro-4-[[7-methoxy-6-(2-methoxyethoxy)-1,5-naphthyridin-4-yl]oxy]phenyl]-5-(4-fluorophenyl)-4-hydroxy-2-(methoxymethyl)-6-methylpyridine-3-carboxamide]
< 100	< 100	< 100	COc1cc2nccc(Oc3ccc(NC(=O)c4cn(C)cc(-c5ccccc5)c4=O)cc3F)c2nc1OC [Compound 33, N-[4-[(6,7-Dimethoxy-1,5-naphthyridin-4-yl)oxy]-3-fluorophenyl]-1-methyl-4-oxo-5-phenylpyridine-3-carboxamide hydrochloride]
< 100	< 100	< 100	COc1cc2nccc(Oc3ccc(NC(=O)c4ccc(C)n(-c5ccc(F)cc5C)c4=O)cc3F)c2nc1OC [Compound 219, N-[4-[(6,7-Dimethoxy-1,5-naphthyridin-4-yl)oxy]-3-fluorophenyl]-1-(4-fluoro-2-methylphenyl)-6-methyl-2-oxopyridine-3-carboxamide]
< 100	< 100	< 100	COc1cc2nccc(Oc3ccc(NC(=O)c4ccc(C)n(-c5ccc(F)cc5C)c4=O)cc3)c2nc1OC [Compound 225, N-[4-[(6,7-Dimethoxy-1,5-naphthyridin-4-yl)oxy]phenyl]-1-(4-fluoro-2-methylphenyl)-6-methyl-2-oxopyridine-3-carboxamide]
